How the values were obtained:
[1] = test system: spared nerve injury model of peripheral neuropathic pain; test: Spared Nerve Injury model (SNI model), treatment day 10 to 21 postoperatively (Example 1); type: in vivo, rats; conditions: for reduction of allodynia: day 10 to 21 postoperatively
Excerpt: (§1) The Chronic Constriction Injury model (CCI model) [Bennet G J, Xie Y K: A peripheral mononeuropathy in rat that produces disorders of pain sensation like those seen in man. Pain 1988, 33:87-107] and the Spared Nerve Injury model (SNI model) [Decosterd I, Woolf C J: Spared Nerve injury: an animal model of persistent peripheral neuropathic pain. Pain 2000, 87:149-158] were used as animal models that show essential elements of the clinical pain syndromes in the presence of neuropathies. In both models, the animals sustain defined nerve damage by surgical means. The pain behavior of the animals can be used to quantitatively measure the efficacy of substances in pain-associated neuropathies. The investigations were carried out on rats according to the published models. […] The same is not true of most other species of laboratory animals.
(§2) In a first series of experiments, the animals sustained a nerve lesion by surgical means according to the SNI model and according to the CCI model. From day 10 to day 21 postoperatively, groups of 12 animals each received intraperitoneal administrations of the test substances twice daily. In tests according to the SNI model, in each application, 2.5, 4.5 or 9 mg tarenflurbil (referred to as RF2.5, RF4.5, and RF9), 4.5 mg S-flurbiprofen (SF4.5), pure vehicle (vehicle—as control) or 25 mg gabapentin (Gaba25—as reference substance), each per kg of body weight, were administered. The behavioral parameters that are typical of pain-associated neuropathies were measured, namely mechanical allodynia using Frey's aestesiometer, cold allodynia using the acetone test, and cold hyperalgesia using the cold plate at 2° C. In tests according to the CCI model, 4.5 or 9 mg/kg body weight of tarenflurbil (RF4.5 and RF9), 9 mg/kg body weight S-flurbiprofen (SF9) or vehicle (vehicle) were administered per group. As before, mechanical/static allodynia, cold allodynia and cold hyperalgesia were measured using Frey's hair test, the acetone test, and the cold plate at 2° C., respectively.

[2] = set-up: species or system rats; conditions: rat, in vivo, ip, 4.5 mg/kg
[3] = test system: chronic constriction injury model of peripheral neuropathic pain; test: Chronic Constriction Injury model (CCI model), treatment day 10 to 21 postoperatively (Example 1); type: in vivo; conditions: rats
Excerpt: as §1, §2

[4] = humans; cited from earlier work
[5] = rats; cited from earlier work
[6] = test system: rats that had not sustained damage; test: Single dose in rats that had not sustained damage (Example 3); type: in vivo; conditions: undamaged rats, single i.p. dose of 9 mg/kg, up to 6 hours after application
Experimental: For qualification of the series' of experiments mentioned above, a single dose of 9 mg/kg body weight tarenflurbil (RF9) or vehicle (vehicle) was applied intraperitoneally in another series of experiments on rats that had not sustained damage and the mechanical allodynia and the heat sensitivity were measured for up to 6 hours after the application using Frey's aesthesiometer and the Hargreaves model, respectively. […] This means that the effects measured for tarenflurbil in Examples 1 and 2 are exclusively related to the effect in pain-associated neuropathies.

[7] = test system: spared nerve injury model of peripheral neuropathic pain; test: SNI model, treatment from the first postoperative day for two weeks (Example 2); type: in vivo, rats
Experimental: In another series of experiments, animals having sustained nerve damage according to the SNI model were treated twice daily with intraperitoneal doses of 9 mg/kg body weight tarenflurbil or vehicle from the first postoperative day and for a period of two weeks. Both the mechanical dynamic allodynia (on the ipsilateral and on the contralateral side) and the cold allodynia (ipsilateral only) were measured by means of Frey's aesthesiometer and the cold plate at 10° C., respectively.

[8] = SNI model, rats, 4.5 mg/kg twice daily i.p.
[9] = summary statement for the pharmacological models

Compound	effect on allodynia compared with tarenflurbil ([1]; SNI model, rats, 25 mg/kg twice daily i.p., positive control)	gastrointestinal bleeding [2]	reduction of allodynia ([3]; 9 mg/kg twice daily i.p.)	reduction of allodynia [1, 8]	effect in models of pain-associated neuropathies [1, 9]	inversion of the R-form to the S-form under in vivo conditions [4]	inversion of tarenflurbil to S-flurbiprofen [5]	mechanical allodynia vs vehicle ([6]; Frey's aesthesiometer)	heat sensitivity vs vehicle ([6]; Hargreaves model)	mechanical allodynia, contralateral side, vs vehicle ([7]; 9 mg/kg twice daily i.p. from first postoperative day for two weeks)	mechanical allodynia, ipsilateral side, vs vehicle ([7]; 9 mg/kg twice daily i.p. from first postoperative day, entire treatment period of two weeks, Frey's aesthesiometer)	cold allodynia, ipsilateral side, vs vehicle ([7]; 9 mg/kg twice daily i.p. from first postoperative day, entire treatment period of two weeks, cold plate at 10° C.)	time until pain-relieving effect falls to pain intensity of the vehicle group ([7]; after completion of two weeks of 9 mg/kg twice daily i.p.)	reduction of allodynia ([3]; 4.5 mg/kg twice daily i.p.)	reduction of allodynia ([1]; SNI model, rats, 9 mg/kg twice daily i.p.)	efficacy relative to reference substance gabapentin ([1]; if dosed sufficiently, vs 25 mg/kg body weight gabapentin)	effect in models of pain-associated neuropathies (dose dependence) [1, 9]
NCC1(CC(=O)O)CCCCC1 [Gabapentin, gabapentin, reference compound]	no significant difference from tarenflurbil	–	–	–	–	–	–	–	–	–	–	–	–	–	–	–	–
C[C@H](C(=O)O)c1ccc(-c2ccccc2)c(F)c1 [S-flurbiprofen, reference compound]	–	gastrointestinal bleeding in some animals	no significant effect	no significant effect	does not show a significant effect	–	–	–	–	–	–	–	–	–	–	–	–
C[C@@H](C(=O)O)c1ccc(-c2ccccc2)c(F)c1 [tarenflurbil]	–	–	significant reduction	significant reduction	–	no or no more than extremely minor inversion	basically do not invert	no significant differences	no significant differences	no difference	significantly different effect from vehicle	significantly different effect from vehicle	eight days after the end of treatment	significant reduction	significant reduction	in the range of the efficacy of 25 mg/kg body weight gabapentin	dose-dependent effect

Source: patent US20090162421A1, “DRUGS AS WELL AS THEIR PRODUCTION AND USE IN THE TREATMENT OF PAIN-ASSOCIATED NEUROPATHIES” (PAZ Arzneimittel-Entwicklungsgesellschaft mbH, priority 2007, published 2009)
